# Results as given in ChEMBL document CHEMBL1152529, “Synthesis, antifungal, haemolytic and cytotoxic activities of a series of bis(alkylpyridinium)alkanes” (Bioorg Med Chem, 2009).
# Activity calls are given as the source filed them. No cut-off for these calls is given here.
# Assays:
# [1] = test system: Cryptococcus neoformans var. grubii H99; test: Inhibition of lysophospholipid fatty acyl chain hydrolysis activity of Cryptococcus neoformans var. grubii H99 PLB assessed as formation of radiolabeled free fatty acid at 0.25 to 250 uM at pH 4 by radiometric assay
# [2] = target: Phospholipase A2, major isoenzyme (Sus scrofa, UniProt P00592); test: Inhibition of porcine pancreatic PLA2 after 1 hr by radiometric method
# [3] = Cytotoxicity against human erythrocytes assessed as hemolysis after 1 hr; type: cell-based, Erythrocyte
# [4] = test system: Cryptococcus neoformans var. grubii H99; test: Inhibition of lysophospholipase acyltransferase activity of Cryptococcus neoformans var. grubii H99 PLB assessed as formation of radiolabeled dipalmitoyl phosphatidylcholine at 0.25 to 250 uM at pH 4 by radiometric assay
# [5] = Inhibition of phospholipid fatty acyl chain hydrolysis activity of Cryptococcus neoformans var. grubii H99 PLB assessed as formation of radiolabeled free fatty acid at pH 4 by radiometric assay
# MDCK = test: Cytotoxicity against MDCK cells after 3 hrs by MTS assay; type: cell-based; settings: Canis lupus familiaris
# A549 = test: Cytotoxicity against human A549 cells after 3 hrs by MTS assay; type: cell-based; settings: A549, 3 h
# Candida albicans = test: Antifungal activity against Candida albicans ATCC 10231 after 48 to 72 hrs by broth microdilution method; type: functional; settings: Candida albicans, ATCC 10231; for MIC: read-out: MIC
# Cryptococcus neoformans = test: Antifungal activity against Cryptococcus neoformans ATCC 90112 after 48 to 72 hrs by broth microdilution method; type: functional; settings: Cryptococcus neoformans, ATCC 90112; for MIC: read-out: MIC
# Aspergillus fumigatus = test: Antifungal activity against Aspergillus fumigatus ATCC 204305 after 48 to 72 hrs by broth microdilution method; type: functional
# Rhizopus arrhizus = test: Antifungal activity against Rhizopus oryzae 05-203111 after 48 to 72 hrs by broth microdilution method; type: functional
# Exophiala spinifera = test: Antifungal activity against Exophiala spinifera 03-200803 after 48 to 72 hrs by broth microdilution method; type: functional
# Candida parapsilosis = test: Antifungal activity against Candida parapsilosis ATCC 22019 after 48 to 72 hrs by broth microdilution method; type: functional; settings: Lodderomyces parapsilosis
# Curvularia australiensis = test: Antifungal activity against Bipolaris australiensis 03-201798 after 48 to 72 hrs by broth microdilution method; type: functional
# Scedosporium apiospermum = test: Antifungal activity against Scedosporium apiospermum 05-203100 after 48 to 72 hrs by broth microdilution method; type: functional
# Aspergillus terreus = test: Antifungal activity against Aspergillus terreus 05-202844 after 48 to 72 hrs by broth microdilution method; type: functional
# Aspergillus flavus = test: Antifungal activity against Aspergillus flavus ATCC 204304 after 48 to 72 hrs by broth microdilution method; type: functional
# Lomentospora prolificans = test: Antifungal activity against Scedosporium prolificans 05-203060 after 48 to 72 hrs by broth microdilution method; type: functional
# Pichia kudriavzevii = test: Antifungal activity against Candida krusei ATCC 6258 after 48 to 72 hrs by broth microdilution method; type: functional
# Nakaseomyces glabratus = test: Antifungal activity against Candida glabrata 04-202345 after 48 to 72 hrs by broth microdilution method; type: functional
# Phospholipase A2, major isoenzyme, sequence (P00592 whole entry): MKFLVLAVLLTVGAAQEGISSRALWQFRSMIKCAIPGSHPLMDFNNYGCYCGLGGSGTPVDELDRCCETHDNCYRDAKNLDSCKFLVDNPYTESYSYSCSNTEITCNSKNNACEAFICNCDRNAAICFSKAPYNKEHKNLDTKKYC
smiles,measurement,setting,value
CCCCC(CCCC)c1cc[n+](CCCCCCCCCCCC[n+]2ccc(C(CCCC)CCCC)cc2)cc1,Activity,[1],inactive
same,IC50,[2],53 µM
same,HC50 at 1 h,[3],124 µM
same,Activity,[4],inactive
same,IC50,[5],5 µM
same,IC50,MDCK,56 µM
same,IC50,A549,55 µM
same,MIC,Candida albicans,1.4 µM
same,MIC,Cryptococcus neoformans,1.4 µM
C[C@@H]1[C@H](O)[C@@H](C)/C=C/C=C/C=C/C=C/C=C/C=C/C=C/[C@H](O[C@@H]2O[C@H](C)[C@@H](O)[C@H](N)[C@@H]2O)C[C@@H]2O[C@](O)(C[C@@H](O)C[C@@H](O)[C@H](O)CC[C@@H](O)C[C@@H](O)CC(=O)O[C@H]1C)C[C@H](O)[C@H]2C(=O)O [AMPHOTERICIN B],MIC,Aspergillus fumigatus,0.54 µM
same,MIC,Rhizopus arrhizus,0.06 µM
same,MIC,Exophiala spinifera,0.27 µM
same,MIC,Candida parapsilosis,0.13 µM
same,MIC,Curvularia australiensis,0.03 µM
same,MIC,Scedosporium apiospermum,17 µM
same,MIC,Aspergillus terreus,1.1 µM
same,MIC,Candida albicans,0.54 µM
same,MIC,Aspergillus flavus,0.54 µM
same,MIC,Lomentospora prolificans,4.3 µM
same,MIC,Cryptococcus neoformans,0.54 µM
same,MIC,Pichia kudriavzevii,0.54 µM
same,MIC,Nakaseomyces glabratus,1.1 µM
CCCc1cc[n+](CCCCCCCCCCCC[n+]2ccc(CCC)cc2)cc1,MIC,Candida albicans,11 µM
same,MIC,Cryptococcus neoformans,44 µM
CCCCCc1ccc[n+](CCCCCCCCCCCC[n+]2cccc(CCCCC)c2)c1,HC50 at 1 h,[3],> 350 µM
same,MIC,Candida albicans,5.5 µM
same,MIC,Cryptococcus neoformans,11 µM
CCCCCc1cccc[n+]1CCCCCCCCCCCC[n+]1ccccc1CCCCC,HC50 at 1 h,[3],> 350 µM
same,IC50,MDCK,315 µM
same,IC50,A549,> 350 µM
same,MIC,Candida albicans,2.7 µM
same,MIC,Cryptococcus neoformans,2.7 µM
CC(C)CCc1cc[n+](CCCCCCCCCCCC[n+]2ccc(CCC(C)C)cc2)cc1,Activity,[1],inactive
same,IC50,[2],67 µM
same,HC50 at 1 h,[3],> 350 µM
same,Activity,[4],inactive
same,IC50,[5],57 µM
same,IC50,MDCK,> 350 µM
same,IC50,A549,> 350 µM
same,MIC,Candida albicans,5.5 µM
same,MIC,Cryptococcus neoformans,2.7 µM
CC(C)(C)c1cc[n+](CCCCCCCCCCCC[n+]2ccc(C(C)(C)C)cc2)cc1,Activity,[1],inactive
same,IC50,[2],> 250 µM
same,HC50 at 1 h,[3],> 350 µM
same,Activity,[4],inactive
same,IC50,[5],34 µM
same,IC50,MDCK,> 350 µM
same,IC50,A549,> 350 µM
same,MIC,Candida albicans,22 µM
same,MIC,Cryptococcus neoformans,11 µM
CCc1cc[n+](CCCCCCCCCCCC[n+]2ccc(CC)cc2)cc1,Activity,[1],inactive
same,IC50,[2],> 250 µM
same,Activity,[4],inactive
same,IC50,[5],138 µM
same,IC50,MDCK,> 350 µM
same,IC50,A549,> 350 µM
same,MIC,Candida albicans,11 µM
same,MIC,Cryptococcus neoformans,44 µM
CCCCCCCCc1cc[n+](CCCCCCCCCCCC[n+]2ccc(CCCCCCCC)cc2)cc1,HC50 at 1 h,[3],98 µM
same,MIC,Candida albicans,2.7 µM
same,MIC,Cryptococcus neoformans,2.7 µM
CCCCCc1cc[n+](CCCCCCCCCCCC[n+]2ccc(CCCCC)cc2)cc1,MIC,Candida albicans,2.7 µM
same,MIC,Cryptococcus neoformans,1.4 µM
CCCCC(CCCC)c1cc[n+](CCCCCCCCCCCC[n+]2ccc(C(CCCC)CCCC)c(C)c2)cc1C,HC50 at 1 h,[3],31 µM
same,IC50,MDCK,10 µM
same,IC50,A549,10 µM
same,MIC,Candida albicans,2.7 µM
same,MIC,Cryptococcus neoformans,2.7 µM
CCCCCc1cc[n+](CCCCCCCCCCCC[n+]2ccc(CCCCC)c(CCCCC)c2)cc1CCCCC,MFC,Aspergillus fumigatus,22 µM
same,MIC,Aspergillus fumigatus,11 µM
same,MFC,Rhizopus arrhizus,2.7 µM
same,MIC,Rhizopus arrhizus,2.7 µM
same,Activity,[1],inactive
same,MFC,Exophiala spinifera,2.7 µM
same,MIC,Exophiala spinifera,2.7 µM
same,MFC,Candida parapsilosis,2.7 µM
same,MIC,Candida parapsilosis,2.7 µM
same,IC50,[2],52 µM
same,MFC,Curvularia australiensis,2.7 µM
same,MIC,Curvularia australiensis,2.7 µM
same,HC50 at 1 h,[3],17.5 µM
same,Activity,[4],inactive
same,IC50,[5],4 µM
same,MFC,Scedosporium apiospermum,5.5 µM
same,MIC,Scedosporium apiospermum,5.5 µM
same,IC50,MDCK,70 µM
same,MFC,Aspergillus terreus,2.7 µM
same,MIC,Aspergillus terreus,1.4 µM
same,IC50,A549,45 µM
same,MFC,Candida albicans,2.7 µM
same,MIC,Candida albicans,2.7 µM
same,MFC,Aspergillus flavus,22 µM
same,MIC,Aspergillus flavus,11 µM
same,MFC,Lomentospora prolificans,5.5 µM
same,MIC,Lomentospora prolificans,2.7 µM
same,MFC,Cryptococcus neoformans,1.4 µM
same,MIC,Cryptococcus neoformans,1.4 µM
same,MFC,Pichia kudriavzevii,2.7 µM
same,MIC,Pichia kudriavzevii,2.7 µM
same,MFC,Nakaseomyces glabratus,1.4 µM
same,MIC,Nakaseomyces glabratus,1.4 µM
CCCCCc1cc[n+](CCCCCCCCCCCC[n+]2ccc(CCCCC)c(C)c2)cc1C,Activity,[1],inactive
same,IC50,[2],134 µM
same,HC50 at 1 h,[3],> 350 µM
same,Activity,[4],inactive
same,IC50,[5],8 µM
same,IC50,MDCK,145 µM
same,IC50,A549,122 µM
same,MIC,Candida albicans,2.7 µM
same,MIC,Cryptococcus neoformans,1.4 µM
Cc1cc[n+](CCCCCCCCCCCC[n+]2ccc(C)cc2)cc1,Activity,[1],inactive
same,IC50,[2],> 250 µM
same,Activity,[4],inactive
same,IC50,[5],> 250 µM
same,IC50,MDCK,> 350 µM
same,IC50,A549,> 350 µM
same,MIC,Candida albicans,22 µM
same,MIC,Cryptococcus neoformans,88 µM
